Assay results as given in publication PMC6694116, “A CRISPR-Cas12a-derived biosensing platform for the highly sensitive detection of diverse small molecules” (Nature Communications, 2019).

Columns and labels:
HosA = HosA (Escherichia coli, UniProt P69782); test: EMSA, dissociation of operator dsDNA; format: binding; settings: pH 7.5, room temperature; allosteric effector
CBD-HosA = CBD-HosA (Escherichia coli, UniProt P69782); test: EMSA, dissociation of operator dsDNA; format: binding; settings: 1.8 mM p-HBA in the specificity test; pH 7.5, room temperature; allosteric effector; also Cas12a read-out with immobilised protein
CBD-HosA, sequence (P69782 whole entry): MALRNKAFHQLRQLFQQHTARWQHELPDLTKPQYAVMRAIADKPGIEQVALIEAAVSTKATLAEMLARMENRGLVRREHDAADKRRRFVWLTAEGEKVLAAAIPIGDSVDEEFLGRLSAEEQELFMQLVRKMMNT

CBD-TetR [1] = target: CBD-TetR (Escherichia coli, UniProt P04483); settings: pH 7.5, room temperature; allosteric effector
CBD-TetR (Escherichia coli, UniProt P04483), sequence (P04483 whole entry): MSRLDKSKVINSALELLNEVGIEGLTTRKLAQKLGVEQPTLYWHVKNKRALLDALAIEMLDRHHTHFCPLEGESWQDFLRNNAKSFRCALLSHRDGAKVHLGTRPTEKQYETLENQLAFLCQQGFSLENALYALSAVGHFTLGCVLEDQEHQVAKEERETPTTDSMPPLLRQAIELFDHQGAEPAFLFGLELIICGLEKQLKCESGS

CBD-HucR [2] = target: T1, CBD-HucR (Deinococcus radiodurans, UniProt Q9RV71); test: EMSA, dissociation of operator dsDNA; format: binding; settings: 0.05-500 uM uric acid; pH 7.5, room temperature; allosteric effector; also Cas12a read-out with immobilised protein
T1 construct: gene DR_1159
T1 sequence (Q9RV71 1-181): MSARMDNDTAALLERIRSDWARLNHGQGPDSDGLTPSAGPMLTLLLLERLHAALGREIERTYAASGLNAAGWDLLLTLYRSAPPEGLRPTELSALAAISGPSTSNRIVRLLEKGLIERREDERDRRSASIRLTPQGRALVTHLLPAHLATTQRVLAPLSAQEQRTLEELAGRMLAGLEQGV

CBD-HucR [3] = target: T2, CBD-HucR (UniProt Q9RV71 1-181); test: EMSA; 25-200 nM protein, 40 nM DNA; EMSA: 10 mM Tris-HCl pH 7.5, 100 mM KCl, 1 mM EDTA, 0.1 mM DTT, 5% glycerol, 0.01 mg/mL BSA, room temperature 30 min; 1.5% agarose gel in Tris-borate-EDTA at 4; settings: protein: recombinant; tags: CBD fused via (SGGGG)4 linker; His tag; chain copies: 2; blunt
T2 sequence: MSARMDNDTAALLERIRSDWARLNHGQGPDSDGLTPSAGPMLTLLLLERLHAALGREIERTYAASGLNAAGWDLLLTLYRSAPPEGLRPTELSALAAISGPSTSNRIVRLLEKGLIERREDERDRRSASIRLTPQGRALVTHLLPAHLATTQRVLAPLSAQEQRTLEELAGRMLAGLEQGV

CBD-TetR [4] = target: CBD-TetR (UniProt P04483 1-207); test: as above; settings: protein: recombinant; tags: CBD fused via (SGGGG)4 linker; His tag; chain copies: 2; blunt
CBD-TetR (UniProt P04483 1-207), sequence (P04483 whole entry, the tested form may be a part): as the sequence (P04483 whole entry) above

HosA, sequence (P69782 whole entry): as the sequence (P69782 whole entry) above

Question: How did the “EMSA, dissociation of operator dsDNA” value (HosA) turn out when `O=C(O)c1ccc(O)cc1` [p-HBA, p-hydroxybenzoic acid] was run?
Answer: Its value is “there were no significant differences between HosA and CBD-HosA on gel-shift images”.

Question: What about the “EMSA, dissociation of operator dsDNA” value (CBD-HosA) of the same molecule?
Answer: Its value is “p-HBA induced the almost complete dissociation of dsDNA from the CBD–HosA–dsDNA complex”.

Question: `CN(C)[C@@H]1C(=O)C(C(N)=O)=C(O)[C@@]2(O)C(=O)C3=C(O)c4c(O)cccc4[C@@](C)(O)[C@H]3C[C@@H]12` [tetracycline] was tested. Which “EMSA, dissociation of operator dsDNA” value (CBD-TetR [1]) did it give?
Answer: Its value is “Both CBD-TetR and CBD-HosA show perfect dsDNA-binding and effector-induced allosteric activities”.

Question: For `O=c1[nH]c(=O)c2[nH]c(=O)[nH]c2[nH]1` [uric acid], which “EMSA, dissociation of operator dsDNA” value (CBD-HucR [2]) is on record?
Answer: The value was “increasing amounts of dsDNA dissociated from the CBD–HucR–dsDNA complex”.

B1: dsDNA(HucR) (dsDNA)
DNA 1: TACTGAGCCATGTATCCAGGTCATTGTACTTAGATGTCTACCTAAGCTCTGACAGTTCCA
DNA 2: TGGAACTGTCAGAGCTTAGGTAGACATCTAAGTACAATGACCTGGATACATGGCTCAGTA
Question: Does B1 bind (CBD-HucR [3])?
Answer: Result: binds

B2: dsDNA(TetR) (dsDNA)
DNA 1: TGAGCCATGTATCCAGGTCATTTGTCCCTATCAGTGATAGAGAAGCTCTGACAGTTCCA
DNA 2: TGGAACTGTCAGAGCTTCTCTATCACTGATAGGGACAAATGACCTGGATACATGGCTCA
Question: Does B2 bind (CBD-TetR [4])?
Answer: Result: binds
